Laboratory results published in patent publication US20070202547A1, “Methods For Detecting Substances Which Bind To The Amyloid Precursor Protein Or Beta Amyloid Fragments, And Binding Compounds” (priority 2004, published 2007).

Target: BACE 1 (Homo sapiens, UniProt P05067)
Test: Western blot of BACE 1 cleavage of APP variant
Type: biochemical
Conditions: bacterially expressed APP variant, BACE 1 protein, 1 h at 37° C.; read-out: IC50, inhibition of BACE cleavage of APP (densitometric quantitation of Western blot)
Method: A bacterially expressed APP variant containing an enhanced BACE cleavage sequence was incubated with Example 2 and BACE 1 protein for 1 h at 37° C. to conduct a Western blot analysis. The reaction was run on a gel and blotted. The BACE-specific cleavage product was detected using an antibody specifically recognizing the N-terminal product arising after BACE cleavage.
FIG. 2(A) depicts the Western blot.

Chain of BACE 1 (P05067 whole entry K670N/M671F/D672E/A673V, form open): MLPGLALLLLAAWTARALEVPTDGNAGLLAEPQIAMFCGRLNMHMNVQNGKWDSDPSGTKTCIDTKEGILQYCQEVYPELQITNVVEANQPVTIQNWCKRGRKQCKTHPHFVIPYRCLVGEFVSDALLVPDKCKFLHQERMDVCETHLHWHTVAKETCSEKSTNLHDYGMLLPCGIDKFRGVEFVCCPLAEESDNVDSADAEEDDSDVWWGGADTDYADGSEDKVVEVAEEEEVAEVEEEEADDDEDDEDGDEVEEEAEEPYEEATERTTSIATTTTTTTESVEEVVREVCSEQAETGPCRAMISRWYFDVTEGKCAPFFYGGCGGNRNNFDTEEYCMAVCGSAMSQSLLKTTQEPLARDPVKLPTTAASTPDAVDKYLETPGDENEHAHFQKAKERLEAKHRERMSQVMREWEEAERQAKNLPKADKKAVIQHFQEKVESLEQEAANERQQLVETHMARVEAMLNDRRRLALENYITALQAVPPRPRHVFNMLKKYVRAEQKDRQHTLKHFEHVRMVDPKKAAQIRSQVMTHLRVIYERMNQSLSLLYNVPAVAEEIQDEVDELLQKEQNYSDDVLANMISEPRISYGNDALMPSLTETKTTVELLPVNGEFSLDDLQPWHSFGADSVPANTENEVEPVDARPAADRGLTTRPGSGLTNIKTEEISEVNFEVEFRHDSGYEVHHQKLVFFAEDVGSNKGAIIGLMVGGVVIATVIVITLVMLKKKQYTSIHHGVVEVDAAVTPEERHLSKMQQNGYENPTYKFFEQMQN

Work on `O=C(O)COc1cc2c(cc1CCCOc1ccccc1Cl)OC(CCc1ccccc1)C2` (stereo not shown) [Example 2, {[6-[3-(2chlorophenoxy)propyl)-2-(2-phenylethyl)-2,3-dihydro-1-benzofuran-5-yl]oxy} acetic] yielded an IC50 of 11 µM.
